Tested on: rat (rattus norvegicus) neuronal cells
Assay: Microarray expression profile of primary rat cortical neurons incubated with valproate
Format: cell-based
Details: 0.5 mM valproate, 3 days
Source text: This example describes experiments, which analyzed changes in the expression profile for rat (rattus norvegicus) neuronal cells induced by valproate, a drug used clinically to treat neuropsychiatric disorders such as bipolar disorder. […] Expression profiles for these genes are compared to expression profiles for orthologous genes in human schizophrenia patients.
Primary neuron cells were isolated from E19 rat embryos and cultured as follows. First, the cortex was dissected from each embryo and placed in HBSS solution. The HBSS solution was subsequently removed and replaced with 5 ml papain solution at a concentration of 10 units per ml. The cortex was then incubated in the papain solution for 10 minutes and at 37° C. After incubation, the Papain solution was removed and 10% NuSerum media (Becton Dickinson, Bedford Mass.) was added in its place. The cortex was then centrifuged at 1000 rpm for 10 minutes, after which time the solution was removed and 1 ml of media containing 0.1% DNase was added. Cells were titurated immediately to break up the tissue. The volume of the cell suspensions was brought up to 15 ml and the cells were counted.
Approximately 4×10^6 cells were plated per 10 cm dish, in NeuroBasal A (Invitrogen Corp., Carlsbad Calif.) medium containing B27 and insulin (25 μg/ml). The cell cultures were incubated in a humidified incubator with 5% CO2 and at 37° C. The culture media were changed every 2 days. Cells were incubated in 0.5 mM valproate for 3 days. Control cultures were also prepared and incubated under the same conditions (including the carrier DMSO) but without valproate.
mRNA was extracted from each group of cultures and expression profiles were measured on microarrays according to standard techniques (see the Detailed Description section, infra). Data from duplicate microarrays was statistically evaluated to identify genes that are differentially expressed in the presence of valproate, relative to expression levels in the absence of valproate.
Table 1, below, lists the twelve genes identified in these experiments as being differentially expressed in the presence of valproate, relative to its expression level in the absence of valproate. These genes were identified using a Rat Toxicology array from Incyte (Palo Alto, Calif.). Each gene is listed in Table 1 by its common or popular name, along with the GenBank Accession and Gene Identification (GI) numbers of the rat gene whose expression level was evaluated in these experiments. The “expression ratio” measured for each gene is also specified. Specifically, the expression ratio, Φ, was calculated using the formula: [formula]
where Ev is the expression level measured in cells incubated with valproate and Eo is the expression level in the absence of valproate.

CCCC(CCC)C(=O)O [valproate] was tested, and the “expression ratio Φ: myelin-associated glycoprotein (MAG)” value (vs no valproate, M22357 SEQ ID NO: 1) was 2.16, the “expression ratio Φ: calmodulin” value (AF178845 SEQ ID NO: 5) was −1.95 and the “expression ratio Φ: SCG10” value (AY004290 SEQ ID NO: 4) was −1.43. The “expression ratio Φ: selenoprotein P” value (D25221 SEQ ID NO: 11) was 1.51, the “expression ratio Φ: plasma membrane calcium ATPase” value (J03753 SEQ ID NO: 12) was −1.36 and the “expression ratio Φ: GAP-43” value (L21191 SEQ ID NO: 3) was −1.88. For the same compound, the “expression ratio Φ: 2′,3′-cyclic nucleotide-3′ phosphodiesterase (CNPI)” value (M18630 SEQ ID NO: 2) was 1.92, the “expression ratio Φ: calcineurin A” value (M29275 SEQ ID NO: 6) was −1.43 and the “expression ratio Φ: kinesin light chain C” value (M75148 SEQ ID NO: 8) was −1.53. For the same compound, the “expression ratio Φ: hypoxanthine-guanine phosphoribosyltransferase” value (M86443 SEQ ID NO: 10) was −1.37, the “expression ratio Φ: cysteine-rich protein” value (U09567 SEQ ID NO: 9) was 1.49 and the “expression ratio Φ: protein kinase C-binding protein NELL2” value (U48245 SEQ ID NO: 7) was −1.7.

Source: US20030096264A1, “Multi-parameter high throughput screening assays (MPHTS)” (Psychiatric Genomics, Inc., priority 2001, published 2003)
